Columns and labels:
[1] = test system: embryogenic callus from maize split-seed explant; assay: shoot regeneration from embryogenic callus on callus/somatic embryo shoot induction medium; type: cell-based; conditions: maximum period of two months
Procedure: Embryogenic calli/somatic embryos are transferred to a “callus/somatic embryo shoot induction medium” (which is an embodiment of the present and is described below) and allowed to develop shoots. The cultures are maintained at 27° C. under 16-hour soft white light. Shoot regeneration frequency is determined by calculating the number of embryogenic calli producing shoots and the number of shoots per callus.
A “callus/somatic embryo shoot induction medium” comprises MS basal salts and B5 vitamins supplemented with a cytokinin, or mixtures of cytokinins. A preferred cytokinin is BAP. The concentration of a cytokinin preferably ranges from 0.1 mg/l to 2.0 mg/l. Preferably the concentration of a cytokinin ranges from […] and most preferably ranges from 0.75 mg/l to 1.0 mg/l. In a preferred embodiment, a cytokinin is BAP is preferably at a concentration of 1.0 mg/l.
White and soft callus formed on the surface of split-seed explants is removed after one week for further growth on “primary calli maintenance medium” (FIG. 3B). Callus initiation from the split-seed is observed in four day old cultures. After one month in culture, highly proliferated calli (FIG. 3C) are transferred to an “embryogenic callus induction medium” containing 2,4-D at 0.1 mg/l and BAP at 0.5 mg/l to maintain embryogenic callus (FIG. 3D). The callus is sub-cultured every two weeks. […]

[2] = test system: maize split-seed explant; assay: direct multiple shoot formation on split-seed explant shoot induction medium; type: cell-based; conditions: BAP alone
Procedure: Another embodiment of the present invention provides a “split-seed explant shoot induction medium.” When a split-seed explant is exposed to a “split-seed explant shoot induction medium” and incubated under a 16-h soft white light at 27° C., the split-seed explant generates at least one shoot. A “split-seed explant shoot induction medium” comprises MS basal salts and B5 vitamins supplemented with a cytokinin or mixtures of cytokinins. A preferred cytokinin is BAP. The concentration of a cytokinin may range from 1.0 mg/l to 6.0 mg/l. Preferably the concentration of a cytokinin ranges from 1.0 mg/l to 5.0 mg/l and more preferably ranges from 1.5 mg/l to 4.5 mg/l. In a preferred embodiment, a cytokinin is BAP and is at a concentration of 3.0 mg/l to 4.0 mg/l. In a preferred embodiment, BAP is preferably at a concentration of 4.0 mg/l. A “split-seed explant shoot induction medium” further comprises glycine at a preferable concentration of 1.0 mg/l, casein hydrolysate at a preferable concentration of 400 mg/l, and sucrose at a preferable concentration of 30 g/l. A “split-seed explant shoot induction medium” may be solidified with 8.0 g/l agar. The pH of the medium is adjusted to 5.8 prior to adding the agar and the medium is autoclaved at 121° C. for 20 minutes.
In another embodiment, a “split-seed explant shoot induction medium” further comprises 6-furfurylaminopurine (“kinetin”). […]

c1ccc(CNc2ncnc3nc[nH]c23)cc1 [BAP, 6-benzylamino purine]
BAP concentration giving the highest number of shoots [1]: 1.0 mg/L
multiple shoot induction [2]: induces multiple shoots

Reference: US20060005273A1, “Novel maize split-seed explant and methods for in vitro regeneration of maize” (University of Toledo, priority 2004, published 2006)
